In the assay the target is T1, recombinant human baculovirus-expressed GST-tagged FASN (Homo sapiens, UniProt P49327).
T1 construct: GST; host or cells: baculovirus expression system (insect cells implied)
Put plainly: FASN enzyme activity assay: fluorescence-based detection of CoA with CPM. The assay is classed as biochemical. As to conditions: 5 nM FASN, 150 μM NADPH, 10 μM acetyl-CoA, 25 μM malonyl-CoA, 90 minutes incubation. The method, boiled down:
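GST-tagged human FASN (5 nM, baculovirus-expressed) in 50 mM HEPES pH 7.5 with 150 μM NADPH, 10 μM acetyl-CoA and 25 μM malonyl-CoA, 0.5% DMSO, started with malonyl-CoA and run 90 min. CoA was detected with CPM (30 min; ex 390/em 530 nm). IC50 came from sigmoidal variable-slope fits of % inhibition.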

Broadly, the IC50 is the midpoint of a concentration-inhibition curve.

T1 sequence (P49327 whole entry): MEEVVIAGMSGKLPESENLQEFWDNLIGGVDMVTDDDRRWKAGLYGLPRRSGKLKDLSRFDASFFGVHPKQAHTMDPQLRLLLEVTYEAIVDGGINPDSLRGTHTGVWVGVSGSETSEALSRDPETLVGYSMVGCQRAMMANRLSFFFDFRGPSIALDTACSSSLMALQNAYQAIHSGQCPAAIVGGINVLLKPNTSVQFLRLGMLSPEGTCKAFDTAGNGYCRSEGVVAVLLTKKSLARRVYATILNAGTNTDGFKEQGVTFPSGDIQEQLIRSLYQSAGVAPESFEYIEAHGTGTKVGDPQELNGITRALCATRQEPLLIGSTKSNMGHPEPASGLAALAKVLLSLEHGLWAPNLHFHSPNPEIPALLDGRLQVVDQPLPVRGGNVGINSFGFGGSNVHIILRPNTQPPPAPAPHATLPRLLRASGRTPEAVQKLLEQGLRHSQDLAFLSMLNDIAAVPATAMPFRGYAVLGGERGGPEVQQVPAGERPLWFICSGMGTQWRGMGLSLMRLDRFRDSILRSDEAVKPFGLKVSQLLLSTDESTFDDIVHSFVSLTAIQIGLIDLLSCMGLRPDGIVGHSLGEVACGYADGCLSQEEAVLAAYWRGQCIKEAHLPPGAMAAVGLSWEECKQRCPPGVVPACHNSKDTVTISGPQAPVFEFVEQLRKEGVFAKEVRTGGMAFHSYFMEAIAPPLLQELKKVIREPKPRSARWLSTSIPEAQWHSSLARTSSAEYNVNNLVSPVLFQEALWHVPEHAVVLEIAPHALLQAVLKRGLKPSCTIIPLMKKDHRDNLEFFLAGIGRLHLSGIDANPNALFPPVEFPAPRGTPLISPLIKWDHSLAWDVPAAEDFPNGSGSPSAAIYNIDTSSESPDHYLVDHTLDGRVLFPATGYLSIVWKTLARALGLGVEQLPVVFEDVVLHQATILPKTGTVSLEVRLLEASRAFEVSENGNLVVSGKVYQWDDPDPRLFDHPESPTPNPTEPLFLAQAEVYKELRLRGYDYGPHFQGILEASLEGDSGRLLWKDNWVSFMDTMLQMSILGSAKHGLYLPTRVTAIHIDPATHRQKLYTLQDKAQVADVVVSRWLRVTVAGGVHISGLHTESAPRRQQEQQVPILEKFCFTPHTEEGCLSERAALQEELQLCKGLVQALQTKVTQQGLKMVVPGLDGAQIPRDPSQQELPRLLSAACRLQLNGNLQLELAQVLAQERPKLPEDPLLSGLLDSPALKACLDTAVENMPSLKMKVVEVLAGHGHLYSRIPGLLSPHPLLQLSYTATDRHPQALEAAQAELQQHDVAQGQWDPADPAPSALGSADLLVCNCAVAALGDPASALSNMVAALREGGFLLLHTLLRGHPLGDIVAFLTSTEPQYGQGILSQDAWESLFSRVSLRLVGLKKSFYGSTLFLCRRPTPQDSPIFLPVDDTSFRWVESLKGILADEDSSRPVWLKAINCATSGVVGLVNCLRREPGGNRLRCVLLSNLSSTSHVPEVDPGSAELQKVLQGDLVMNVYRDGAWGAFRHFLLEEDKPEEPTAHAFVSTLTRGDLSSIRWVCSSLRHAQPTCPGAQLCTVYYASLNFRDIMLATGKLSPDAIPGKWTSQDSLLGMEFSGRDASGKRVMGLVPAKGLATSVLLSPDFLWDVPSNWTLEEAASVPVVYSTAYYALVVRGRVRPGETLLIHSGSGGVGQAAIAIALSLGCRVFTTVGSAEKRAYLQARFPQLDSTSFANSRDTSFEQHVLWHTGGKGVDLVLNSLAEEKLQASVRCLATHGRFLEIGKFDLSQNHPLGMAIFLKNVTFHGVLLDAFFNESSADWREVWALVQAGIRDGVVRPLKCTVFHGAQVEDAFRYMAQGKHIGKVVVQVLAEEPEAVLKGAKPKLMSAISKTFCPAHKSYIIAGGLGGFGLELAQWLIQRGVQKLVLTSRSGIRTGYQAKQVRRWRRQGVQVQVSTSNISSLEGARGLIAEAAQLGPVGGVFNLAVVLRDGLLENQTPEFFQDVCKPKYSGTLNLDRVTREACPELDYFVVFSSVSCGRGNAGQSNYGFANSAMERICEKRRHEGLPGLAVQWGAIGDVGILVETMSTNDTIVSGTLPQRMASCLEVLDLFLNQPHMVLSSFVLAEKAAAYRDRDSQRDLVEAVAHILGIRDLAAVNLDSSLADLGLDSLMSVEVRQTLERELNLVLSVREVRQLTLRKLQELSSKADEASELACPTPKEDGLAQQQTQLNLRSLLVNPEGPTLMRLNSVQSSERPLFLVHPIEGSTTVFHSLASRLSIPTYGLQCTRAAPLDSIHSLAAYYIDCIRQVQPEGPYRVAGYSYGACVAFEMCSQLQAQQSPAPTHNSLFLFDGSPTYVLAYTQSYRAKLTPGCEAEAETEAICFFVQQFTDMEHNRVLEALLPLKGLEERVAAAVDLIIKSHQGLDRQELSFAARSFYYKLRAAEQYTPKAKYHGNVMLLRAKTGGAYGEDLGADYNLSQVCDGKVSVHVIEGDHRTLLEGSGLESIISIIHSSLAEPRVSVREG

With `Cc1c(-c2ccc(CC3=CCN(C(=O)C4CC4)CC3)cc2)ccc2cccnc12` [Example 184, Cyclopropyl(4-(4-(8-methylquinolin-7-yl)benzyl)-3,6-dihydropyridin-1(2H)-yl)methanone], the IC50 lay in the range of 100 to 999 nM.

For the molecule `CCC(=O)N1CCC(F)(Cc2ccc(-c3ccc4cccnc4c3C)cc2)CC1` [Example 185, 1-(4-fluoro-4-(4-(8-methylquinolin-7-yl)benzyl)piperidin-1-yl)propan-1-one], the 50% inhibitory concentration (IC50) lay within 1 to 99 nM.

Regarding `CCC(=O)N1CC=C(Cc2ccc(-c3ccc4cccnc4c3C)cc2)CC1` [Example 186, 1-(4-(4-(8-methylquinolin-7-yl)benzyl)-3,6-dihydropyridin-1(2H)-yl)propan-1-one], the IC50 lay in the range of 1 to 99 nM.

As to `O=C([C@H]1CCCO1)N1CCC(F)(Cc2ccc(-c3ccc4cccnc4c3)cc2)CC1` [Example 187, (R)-(4-fluoro-4-(4-(quinolin-7-yl)benzyl)piperidin-1-yl)(tetrahydrofuran-2-yl)methanone], the IC50 lay in the range of 1 to 99 nM.

As for `Cc1c(-c2ccc(CC3(F)CCN(C(=O)C4CC4)CC3)cc2)cnc2ccccc12` [Example 191, Cyclopropyl(4-fluoro-4-(4-(4-methylquinolin-3-yl)benzyl)piperidin-1-yl)methanone], the IC50 lay within 1 to 99 nM.

Turning to `Cc1c(-c2ccc(CC3=CCN(C(=O)C4CC4)CC3)cc2)cnc2ccccc12` [Example 192, Cyclopropyl(4-(4-(4-methylquinolin-3-yl)benzyl)-5,6-dihydropyridin-1(2H)-yl)methanone], the IC50 was 100 to 999 nM.

For the molecule `CCC(=O)N1CCC(F)(Cc2ccc(-c3cnc4ccccc4c3Cl)cc2)CC1` [Example 193, 1-(4-(4-(4-chloroquinolin-3-yl)benzyl)-4-fluoropiperidin-1-yl)propan-1-one], the IC50 lay in the range of 1 to 99 nM.

With `CCC(=O)N1CC=C(Cc2ccc(-c3cnc4ccccc4c3Cl)cc2)CC1` [Example 194, 1-(4-(4-(4-Chloroquinolin-3-yl)benzyl)-3,6-dihydropyridin-1(2H)-yl)propan-1-one], the IC50 lay in the range of 100 to 999 nM.

With `CCC(=O)N1CCC(F)(Cc2ccc(-c3cnc4ccccc4c3C)cc2)CC1` [Example 195, 1-(4-Fluoro-4-(4-(4-methylquinolin-3-yl)benzyl)piperidin-1-yl)propan-1-one], the IC50 fell in the range of 1 to 99 nM.

Turning to `CCC(=O)N1CC=C(Cc2ccc(-c3cnc4ccccc4c3C)cc2)CC1` [Example 196, 1-(4-(4-(4-Methylquinolin-3-yl)benzyl)-5,6-dihydropyridin-1(2H)-yl)propan-1-one], the IC50 fell in the range of 1 to 99 nM.

Regarding `O=C(C1CC1)N1CCC(F)(Cc2ccc(-c3cnc4ccccc4c3Cl)cc2)CC1` [Example 197, (4-(4-(4-Chloroquinolin-3-yl)benzyl)-4-fluoropiperidin-1-yl)(cyclopropyl)-methanone], the IC50 lay in the range of 1 to 99 nM.

As to `O=C(C1CC1)N1CC=C(Cc2ccc(-c3cnc4ccccc4c3Cl)cc2)CC1` [Example 198, (4-(4-(4-Chloroquinolin-3-yl)benzyl)-3,6-dihydropyridin-1(2H)-yl)(cyclopropyl)methanone], the 50% inhibitory concentration (IC50) was in the range of 100 to 999 nM.

For `Cc1c(-c2ccc(CC3(F)CCN(C(=O)[C@H]4CCCO4)CC3)cc2)ccc2cccnc12` [Example 199, (R)-(4-fluoro-4-(4-(8-methylquinolin-7-yl)benzyl)piperidin-1-yl)(tetrahydrofuran-2-yl)methanone], the IC50 fell in the range of 1 to 99 nM.

`Cc1c(-c2ccc(CC3=CCN(C(=O)[C@H]4CCCO4)CC3)cc2)ccc2cccnc12` [Example 200, (R)-(4-(4-(8-methylquinolin-7-yl)benzyl)-3,6-dihydropyridin-1(2H)-yl)(tetrahydrofuran-2-yl)methanone]: the half-maximal inhibitory concentration (IC50) was 1 to 99 nM.

Turning to `O=C([C@H]1CCCO1)N1CCC(F)(Cc2ccc(-c3cnc4ccccc4c3Cl)cc2)CC1` [Example 201, (R)-(4-(4-(4-chloroquinolin-3-yl)benzyl)-4-fluoropiperidin-1-yl)(tetrahydrofuran-2-yl)methanone], the IC50 lay in the range of 1 to 99 nM.

Consider `O=C([C@H]1CCCO1)N1CC=C(Cc2ccc(-c3cnc4ccccc4c3Cl)cc2)CC1` [Example 202, (R)-(4-(4-(4-chloroquinolin-3-yl)benzyl)-3,6-dihydropyridin-1(2H)-yl)(tetrahydrofuran-2-yl)methanone], for which the IC50 lay within 1 to 99 nM.

`CC(C)(c1ccc(-c2cnc3ccccc3c2)cc1)C1CCN(C(=O)[C@H]2CCCO2)CC1` [Example 203]: the IC50 was 1 to 99 nM.

Consider `CC(C)(c1ccc(-c2cnc3ccccc3c2)cc1)C1CCN(C(=O)C2CC2)CC1` [Example 204, Cyclopropyl(4-(2-(4-(quinolin-3-yl)phenyl)propan-2-yl)piperidin-1-yl)methanone], for which the IC50 lay in the range of 100 to 999 nM.

Regarding `CCC(=O)N1CCC(C(C)(C)c2ccc(-c3cnc4ccccc4c3)cc2)CC1` [Example 205, 1-(4-(2-(4-(quinolin-3-yl)phenyl)propan-2-yl)piperidin-1-yl)propan-1-one], the IC50 lay in the range of 100 to 999 nM.

For the molecule `CCOC(C)(c1ccc(-c2cnc3ccccc3c2)cc1)C1CCN(C(=O)CC)CC1` (centres unmarked) [Example 206, 1-{4-[1-Ethoxy-1-(4-quinolin-3-yl-phenyl)-ethyl]-piperidin-1-yl}-propan-1-one], the IC50 lay in the range of 100 to 999 nM.

For `CCOC(C)(c1ccc(-c2cnc3ccccc3c2)cc1)C1CCN(C(=O)C2CC2)CC1` (centres unmarked) [Example 207, Cyclopropyl-{4-[1-ethoxy-1-(4-quinolin-3-yl-phenyl)-ethyl]-piperidin-1-yl}-methanone], the IC50 lay within 100 to 999 nM.

With `CCC(=O)N1CCC(C(C)(OC)c2ccc(-c3cnc4ccccc4c3)cc2)CC1` (centres unmarked) [Example 208, 1-{4-[1-Methoxy-1-(4-quinolin-3-yl-phenyl)-ethyl]-piperidin-1-yl}-propan-1-one], the IC50 lay in the range of 100 to 999 nM.

For the molecule `COC(C)(c1ccc(-c2cnc3ccccc3c2)cc1)C1CCN(C(=O)C2CC2)CC1` (centres unmarked) [Example 209, Cyclopropyl-{4-[1-methoxy-1-(4-quinolin-3-yl-phenyl)-ethyl]-piperidin-1-yl}-methanone], the half-maximal inhibitory concentration (IC50) is 1 to 99 nM.

For `CCC(=O)N1CCC(C(CC)(OC)c2ccc(-c3cnc4ccccc4c3)cc2)CC1` (centres unmarked) [Example 210, 1-{4-[1-Methoxy-1-(4-quinolin-3-yl-phenyl)-propyl]-piperidin-1-yl}-propan-1-one], the half-maximal inhibitory concentration (IC50) is 1000 to 10000 nM.

For `CCC(OC)(c1ccc(-c2cnc3ccccc3c2)cc1)C1CCN(C(=O)C2CC2)CC1` (centres unmarked) [Example 211, Cyclopropyl-{4-[1-methoxy-1-(4-quinolin-3-yl-phenyl)-propyl]-piperidin-1-yl}-methanone], the concentration for half-maximal inhibition (IC50) is 1000 to 10000 nM.

As to `CCC(=O)N1CCC(C(C)(OC)c2ccc(-c3ccc4cccnc4c3)cc2)CC1` (centres unmarked) [Example 212, 1-{4-[1-Methoxy-1-(4-quinolin-7-yl-phenyl)-ethyl]-piperidin-1-yl}-propan-1-one], the IC50 was in the range of 1 to 99 nM.

Turning to `COC(C)(c1ccc(-c2ccc3cccnc3c2)cc1)C1CCN(C(=O)C2CC2)CC1` (centres unmarked) [Example 213, Cyclopropyl-{4-[1-methoxy-1-(4-quinolin-7-yl-phenyl)-ethyl]-piperidin-1-yl}-methanone], the IC50 was in the range of 100 to 999 nM.

For `CCOC(C)(c1ccc(-c2ccc3cccnc3c2)cc1)C1CCN(C(=O)CC)CC1` (centres unmarked) [Example 214, 1-{4-[1-Ethoxy-1-(4-quinolin-7-yl-phenyl)-ethyl]-piperidin-1-yl}-propan-1-one], the IC50 fell in the range of 100 to 999 nM.

Take `CCOC(C)(c1ccc(-c2ccc3cccnc3c2)cc1)C1CCN(C(=O)C2CC2)CC1` (centres unmarked) [Example 215, Cyclopropyl-{4-[1-ethoxy-1-(4-quinolin-7-yl-phenyl)-ethyl]-piperidin-1-yl}-methanone]: the IC50 fell in the range of 100 to 999 nM.

For the molecule `CCC(=O)N1CCC(C(CC)(OC)c2ccc(-c3ccc4cccnc4c3)cc2)CC1` (centres unmarked) [Example 216, 1-{4-[1-Methoxy-1-(4-quinolin-7-yl-phenyl)-propyl]-piperidin-1-yl}-propan-1-one], the IC50 lay within 1000 to 10000 nM.

Take `CCC(OC)(c1ccc(-c2ccc3cccnc3c2)cc1)C1CCN(C(=O)C2CC2)CC1` (centres unmarked) [Example 217, Cyclopropyl-{4-[1-methoxy-1-(4-quinolin-7-yl-phenyl)-propyl]-piperidin-1-yl}-methanone]: the half-maximal inhibitory concentration (IC50) was 1000 to 10000 nM.

For `CCC(=O)N1CCC(Cc2ccc(-c3cnc4ccccc4c3)cc2)C(=O)C1` (centres unmarked) [Example 220, 1-Propionyl-4-(4-quinolin-3-yl-benzyl)-piperidin-3-one], the IC50 lay within 100 to 999 nM.

In the case of `CCC(=O)N1CCC(F)(C(=O)c2ccc(-c3ccc4cccnc4c3C)cc2)CC1` [Example 222, 1-{4-Fluoro-4-[4-(8-methylquinolin-7-yl)-benzoyl]-piperidin-1-yl}-propan-1-one], the IC50 was 1000 to 10000 nM.

For the molecule `CCC(=O)N1CCC(F)(C(O)c2ccc(-c3ccc4cccnc4c3C)cc2)CC1` (centres unmarked) [Example 223], the concentration for half-maximal inhibition (IC50) lay within 1 to 99 nM.

Take `O=C([C@H]1CCCO1)N1CC[C@@H](Cc2ccc(-c3cnc4ccccc4c3)cc2)[C@H](O)C1` [Example 224, [trans-3-Hydroxy-4-(4-quinolin-3-yl-benzyl)-piperidin-1-yl]-(R)-tetrahydrofuran-2-yl-methanone]: the IC50 fell in the range of 1 to 99 nM.

`CCC(=O)N1CCC(F)(C(OC)c2ccc(-c3ccc4cccnc4c3C)cc2)CC1` (centres unmarked) [Example 225, 1-(4-Fluoro-4-{methoxy-[4-(8-methyl-quinolin-7-yl)-phenyl]-methyl}-piperidin-1-yl)-propan-1-one]: the IC50 fell in the range of 1 to 99 nM.

Regarding `CCC(=O)N1CCC(F)(C(OCCOC)c2ccc(-c3ccc4cccnc4c3C)cc2)CC1` (centres unmarked) [Example 226, 1-(4-Fluoro-4-{(2-methoxy-ethoxy)-[4-(8-methyl-quinolin-7-yl)-phenyl]-methyl}-piperidin-1-yl)-propan-1-one], the IC50 was 1 to 99 nM.

Turning to `CCC(=O)N1CCC(F)(C(OCCN2CCOCC2)c2ccc(-c3ccc4cccnc4c3C)cc2)CC1` (centres unmarked) [Example 227, 1-{4-Fluoro-4-[[4-(8-methyl-quinolin-7-yl)-phenyl]-(2-morpholin-4-yl-ethoxy)-methyl]-piperidin-1-yl}-propan-1-one], the IC50 lay within 1 to 99 nM.
